Reference: PubChem BioAssay AID1259407 (Chemical Carcinogenesis Research Information System (CCRIS), 2018)
Activity calls are given as the source filed them. The rule behind the calls is not given here.

Test system: CCRIS mutagenicity, Ames/micronucleus/aberration tests
Experiment: CCRIS mutagenicity studies
[1] = Test System: AMES SALMONELLA TYPHIMURIUM, Strain/Indicator: TA97, Metabolic Activation: NONE, Method: PREINCUBATION
[2] = Test System: AMES SALMONELLA TYPHIMURIUM, Strain/Indicator: TA98, Metabolic Activation: NONE, Method: PREINCUBATION
[3] = Test System: AMES SALMONELLA TYPHIMURIUM, Strain/Indicator: TA100, Metabolic Activation: NONE, Method: PREINCUBATION
[4] = Test System: AMES SALMONELLA TYPHIMURIUM, Strain/Indicator: TA1535, Metabolic Activation: NONE, Method: PREINCUBATION

Measured: mutagenic call

CCCCC(CC)COCCCN (configuration not stated)
inactive: Test System: AMES SALMONELLA TYPHIMURIUM, Strain/Indicator: TA97, Metabolic Activation: HAMSTER, LIVER, S-9, AROCLOR 1254 (10%), Method: PREINCUBATION inactive; negative | Test System: AMES SALMONELLA TYPHIMURIUM, Strain/Indicator: TA97, Metabolic Activation: HAMSTER, LIVER, S-9, AROCLOR 1254 (30%), Method: PREINCUBATION inactive; negative | [1] inactive; negative | Test System: AMES SALMONELLA TYPHIMURIUM, Strain/Indicator: TA97, Metabolic Activation: RAT, LIVER, S-9, AROCLOR 1254 (10%), Method: PREINCUBATION inactive; negative | Test System: AMES SALMONELLA TYPHIMURIUM, Strain/Indicator: TA97, Metabolic Activation: RAT, LIVER, S-9, AROCLOR 1254 (30%), Method: PREINCUBATION inactive; negative | Test System: AMES SALMONELLA TYPHIMURIUM, Strain/Indicator: TA98, Metabolic Activation: HAMSTER, LIVER, S-9, AROCLOR 1254 (10%), Method: PREINCUBATION inactive; negative | Test System: AMES SALMONELLA TYPHIMURIUM, Strain/Indicator: TA98, Metabolic Activation: HAMSTER, LIVER, S-9, AROCLOR 1254 (30%), Method: PREINCUBATION inactive; negative | [2] inactive; negative | Test System: AMES SALMONELLA TYPHIMURIUM, Strain/Indicator: TA98, Metabolic Activation: RAT, LIVER, S-9, AROCLOR 1254 (10%), Method: PREINCUBATION inactive; negative | Test System: AMES SALMONELLA TYPHIMURIUM, Strain/Indicator: TA98, Metabolic Activation: RAT, LIVER, S-9, AROCLOR 1254 (30%), Method: PREINCUBATION inactive; negative | Test System: AMES SALMONELLA TYPHIMURIUM, Strain/Indicator: TA100, Metabolic Activation: HAMSTER, LIVER, S-9, AROCLOR 1254 (10%), Method: PREINCUBATION inactive; negative | Test System: AMES SALMONELLA TYPHIMURIUM, Strain/Indicator: TA100, Metabolic Activation: HAMSTER, LIVER, S-9, AROCLOR 1254 (30%), Method: PREINCUBATION inactive; negative | [3] inactive; negative | Test System: AMES SALMONELLA TYPHIMURIUM, Strain/Indicator: TA100, Metabolic Activation: RAT, LIVER, S-9, AROCLOR 1254 (10%), Method: PREINCUBATION inactive; negative | Test System: AMES SALMONELLA TYPHIMURIUM, Strain/Indicator: TA100, Metabolic Activation: RAT, LIVER, S-9, AROCLOR 1254 (30%), Method: PREINCUBATION inactive; negative | Test System: AMES SALMONELLA TYPHIMURIUM, Strain/Indicator: TA1535, Metabolic Activation: HAMSTER, LIVER, S-9, AROCLOR 1254 (10%), Method: PREINCUBATION inactive; negative | Test System: AMES SALMONELLA TYPHIMURIUM, Strain/Indicator: TA1535, Metabolic Activation: HAMSTER, LIVER, S-9, AROCLOR 1254 (30%), Method: PREINCUBATION inactive; negative | [4] inactive; negative | Test System: AMES SALMONELLA TYPHIMURIUM, Strain/Indicator: TA1535, Metabolic Activation: RAT, LIVER, S-9, AROCLOR 1254 (10%), Method: PREINCUBATION inactive; negative | Test System: AMES SALMONELLA TYPHIMURIUM, Strain/Indicator: TA1535, Metabolic Activation: RAT, LIVER, S-9, AROCLOR 1254 (30%), Method: PREINCUBATION inactive; negative

CCCCCCCCCC(=O)O
inactive: Test System: AMES SALMONELLA TYPHIMURIUM, Strain/Indicator: TA97, Metabolic Activation: HAMSTER, LIVER, S-9, AROCLOR 1254 (10 OR 30%), Method: PREINCUBATION inactive; negative | [1] inactive; negative | Test System: AMES SALMONELLA TYPHIMURIUM, Strain/Indicator: TA97, Metabolic Activation: RAT, LIVER, S-9, AROCLOR 1254 (10 OR 30%), Method: PREINCUBATION inactive; negative | Test System: AMES SALMONELLA TYPHIMURIUM, Strain/Indicator: TA98, Metabolic Activation: HAMSTER, LIVER, S-9, AROCLOR 1254 (10 OR 30%), Method: PREINCUBATION inactive; negative | [2] inactive; negative | Test System: AMES SALMONELLA TYPHIMURIUM, Strain/Indicator: TA98, Metabolic Activation: RAT, LIVER, S-9, AROCLOR 1254 (10 OR 30%), Method: PREINCUBATION inactive; negative | Test System: AMES SALMONELLA TYPHIMURIUM, Strain/Indicator: TA100, Metabolic Activation: HAMSTER, LIVER, S-9, AROCLOR 1254 (10 OR 30%), Method: PREINCUBATION inactive; negative | [3] inactive; negative | Test System: AMES SALMONELLA TYPHIMURIUM, Strain/Indicator: TA100, Metabolic Activation: RAT, LIVER, S-9, AROCLOR 1254 (10 OR 30%), Method: PREINCUBATION inactive; negative | Test System: AMES SALMONELLA TYPHIMURIUM, Strain/Indicator: TA1535, Metabolic Activation: HAMSTER, LIVER, S-9, AROCLOR 1254 (10 OR 30%), Method: PREINCUBATION inactive; negative | [4] inactive; negative | Test System: AMES SALMONELLA TYPHIMURIUM, Strain/Indicator: TA1535, Metabolic Activation: RAT, LIVER, S-9, AROCLOR 1254 (10 OR 30%), Method: PREINCUBATION inactive; negative | Test System: AMES SALMONELLA TYPHIMURIUM, Strain/Indicator: TA1537, Metabolic Activation: HAMSTER, LIVER, S-9, AROCLOR 1254 (10 OR 30%), Method: PREINCUBATION inactive; negative | Test System: AMES SALMONELLA TYPHIMURIUM, Strain/Indicator: TA1537, Metabolic Activation: NONE, Method: PREINCUBATION inactive; negative | Test System: AMES SALMONELLA TYPHIMURIUM, Strain/Indicator: TA1537, Metabolic Activation: RAT, LIVER, S-9, AROCLOR 1254 (10 OR 30%), Method: PREINCUBATION inactive; negative

CC12OOC1Oc1ccccc12 (configuration not stated)
active: [3] active; positive

CCCCCCN=[N+]=[N-]
active: Test System: Ames Salmonella typhimurium, Strain/Indicator: TA100, Metabolic Activation: Rat, Liver, S-9, Aroclor 1254, Method: Preincubation active; positive
inactive: Test System: Ames Salmonella typhimurium, Strain/Indicator: TA100, Metabolic Activation: None, Method: Preincubation inactive; negative

O.O.O.O=C([O-])COc1ccccc1.O=C([O-])COc1ccccc1.[Cu+2]
inactive: [1] inactive; negative | Test System: AMES SALMONELLA TYPHIMURIUM, Strain/Indicator: TA97, Metabolic Activation: RAT, LIVER, S-9, AROCLOR 1254, Method: PREINCUBATION inactive; negative | [3] inactive; negative | Test System: AMES SALMONELLA TYPHIMURIUM, Strain/Indicator: TA100, Metabolic Activation: RAT, LIVER, S-9, AROCLOR 1254, Method: PREINCUBATION inactive; negative | Test System: AMES SALMONELLA TYPHIMURIUM, Strain/Indicator: TA102, Metabolic Activation: NONE, Method: PREINCUBATION inactive; negative | Test System: AMES SALMONELLA TYPHIMURIUM, Strain/Indicator: TA102, Metabolic Activation: RAT, LIVER, S-9, AROCLOR 1254, Method: PREINCUBATION inactive; negative

C=Cc1ccc(N)cc1
active: Test System: AMES SALMONELLA TYPHIMURIUM, Strain/Indicator: TA98, Metabolic Activation: HAMSTER, LIVER, S-9, AROCLOR 1254, Method: STANDARD PLATE active; positive | Test System: AMES SALMONELLA TYPHIMURIUM, Strain/Indicator: TA100, Metabolic Activation: HAMSTER, LIVER, S-9, AROCLOR 1254, Method: STANDARD PLATE active; positive
inactive: Test System: AMES SALMONELLA TYPHIMURIUM, Strain/Indicator: TA98, Metabolic Activation: NONE, Method: STANDARD PLATE inactive; negative | Test System: AMES SALMONELLA TYPHIMURIUM, Strain/Indicator: TA98, Metabolic Activation: RAT, LIVER, S-9, AROCLOR 1254, Method: STANDARD PLATE inactive; negative | Test System: AMES SALMONELLA TYPHIMURIUM, Strain/Indicator: TA100, Metabolic Activation: NONE, Method: STANDARD PLATE inactive; negative | Test System: AMES SALMONELLA TYPHIMURIUM, Strain/Indicator: TA100, Metabolic Activation: RAT, LIVER, S-9, AROCLOR 1254, Method: STANDARD PLATE inactive; negative | Test System: MOUSE LYMPHOMA, Strain/Indicator: L5178Y (TK+/TK-), Metabolic Activation: NONE, Method: SUSPENSION/PLATE inactive; positive. reevaluation of results: negative | Test System: MOUSE LYMPHOMA, Strain/Indicator: L5178Y (TK+/TK-), Metabolic Activation: RAT, LIVER, S-9, AROCLOR 1254, Method: SUSPENSION/PLATE inactive; positive. reevaluation of results: negative
